This assay relates to murine melanoma named B16. Put plainly: Inhibition of melanin biosynthesis in secondary cultures of murine melanoma B16, 72 hours of exposure. The format is cell-based. The method, then:
In order to evaluate the inhibition of melanin biosynthesis by the present mixture, an in vitro experimental model was used which consists of secondary cultures of a murine melanoma named B16. This strain is composed of cells with fibroblastoid morphology which produce melanin (Source: European Collection of Cell Cultures, ECACC).
For the tests, powders of the active ingredients were dissolved in ethanol and propylene glycol (1:1) at 10% (w/w) followed by dilution in culture medium DMEM high glucose+10% FBS supplemented with antibiotics (Penicillin 2000 IU/ml, Streptomycin 1000 IU/ml, Gentamicin 10 mg/ml) to final concentrations of: • A) 4-(1-phenylethyl)-1,3-benzenediol: 10 μg/ml; • B) Acetylglucosamine: 25 μg/ml, 50 μg/ml, 75 μg/ml; • C) Ethyl linoleate: 50 μg/ml; • D) 4-(1-phenylethyl)-1,3-benzenediol at concentration of 10 μg/ml and acetylglucosamine at concentration of 75 μg/ml; • E) 4-(1-phenylethyl)-1,3-benzenediol at a concentration of 10 μg/ml, acetylglucosamine at a concentration of 75 μg/ml, and ethyl linoleate at a concentration of 75 μg/ml. • F) hydroquinone at a concentration of 5 μg/ml (non-cytotoxic concentration)
At passage 30 the afore said cells were seeded on 6-well plates for 24 hours at a concentration of 80,000 cells per well. Then, fresh culture medium containing the afore said samples was added. Untreated cells were used as a negative control, whereas cells treated with hydroquinone at a non-cytotoxic concentration of 5 μg/ml were used as a positive control, as indicated above at point F).
Each sample was tested in duplicate.
After 72 hours of exposure, melanin and intracellular proteins were dosed.
Cells were washed once with phosphate buffered saline (PBS) and then lysed with NaOH 0.1N. The lysate was heated at 60° C. for 1 hour to allow melanin to be solubilized.
In order to evaluate the amount of melanin in the cell lysate, a spectrophotometric reading was taken at a wavelength of 405 nm with the use of a colorimeter (Tecan Sunrise Remote Model) equipped with a plate reader.
A standard curve for melanin titrated from 15 to 500 μg/ml was prepared.
The protein dosage was carried out according to the Bradford's method (Bradford M., […]). […]
The reading was taken at 595 nm with a colorimeter (Tecan, Sunrise) equipped with a plate reader.
In order to quantify protein and melanin contents, a standard calibration curve for albumin and melanin was constructed, and their concentrations in the samples were calculated by using the curve fit formula and the corresponding absorbances.
Then, averages of individual data were calculated and, for each sample, the percentage reduction of melanin was calculated compared to the negative control: […]

As to `CC(c1ccccc1)c1ccc(O)cc1O` (stereo not shown) [4-(1-phenylethyl)-1,3-benzenediol], the “percentage reduction in melanin biosynthesis” value (10 μg/ml, B16 cells, 72 h) was “about 50%”.

`CC(=O)N[C@@H]1[C@@H](O)[C@H](O)[C@@H](CO)O[C@@H]1O` [acetylglucosamine]: for the setting “acetylglucosamine alone, average over 25 μg/ml, 50 μg/ml and 75 μg/ml, B16 cells, 72 h”, the “average reduction in melanin biosynthesis” value turned out to be 8%.

Consider `CCCCC/C=C\C/C=C\CCCCCCCC(=O)OCC` [ethyl linoleate], for which the “ability to inhibit melanin synthesis when used individually” value (ethyl linoleate alone (50 μg/ml), compared with the mixture containing it) was “significantly lower than that of the present mixture”.

In the case of `Oc1ccc(O)cc1` [hydroquinone], for the setting “Mus musculus, hydroquinone at non-cytotoxic concentration (5 μg/ml), positive control, B16 cells, 72 h, read-out: ability to inhibit melanin biosynthesis”, the inhibition at 5 µg/mL is around 40%.

The values above are taken from patent US20150110725A1, “MIXTURE FOR THE INHIBITION OF MELANIN BIOSYNTHESIS” (GENERAL TOPICS S.R.L., priority 2012, published 2015).
